For orientation: IC50 means the concentration needed to halve the response being measured. In general, inhibition in vivo refers to the relative decrease from the control value, in per cent.

Series [1] concerns the target T1, Prostaglandin G/H synthase 1 (Ovis aries, UniProt P05979).
T1 sequence (P05979 whole entry): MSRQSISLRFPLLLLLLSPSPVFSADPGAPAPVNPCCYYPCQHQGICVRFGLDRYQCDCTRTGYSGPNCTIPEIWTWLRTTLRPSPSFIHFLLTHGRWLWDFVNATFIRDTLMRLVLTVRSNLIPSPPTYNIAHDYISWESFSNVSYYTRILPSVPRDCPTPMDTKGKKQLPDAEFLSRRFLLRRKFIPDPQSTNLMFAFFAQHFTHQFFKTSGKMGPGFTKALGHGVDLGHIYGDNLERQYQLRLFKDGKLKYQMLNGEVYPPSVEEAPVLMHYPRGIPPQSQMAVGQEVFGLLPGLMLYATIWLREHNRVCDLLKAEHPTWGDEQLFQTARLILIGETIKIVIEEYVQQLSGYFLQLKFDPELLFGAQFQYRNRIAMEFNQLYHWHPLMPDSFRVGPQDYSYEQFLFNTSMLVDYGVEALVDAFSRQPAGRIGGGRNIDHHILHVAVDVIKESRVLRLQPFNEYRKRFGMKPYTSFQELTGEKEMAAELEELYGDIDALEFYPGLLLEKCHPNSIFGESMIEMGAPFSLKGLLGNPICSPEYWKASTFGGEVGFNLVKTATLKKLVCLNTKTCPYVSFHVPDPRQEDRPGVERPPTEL
The series can be described thus: Inhibition of ovine COX-1 preincubated for 2 mins prior to arachidonic acid addition by enzyme immuno assay.

The nature of series [2]: Selectivity index, ratio of IC50 for ovine COX-1 to IC50 for human recombinant COX-2.
The test system of series [3] is Rattus norvegicus. The series can be described thus: Antiinflammatory activity in rat assessed as inhibition of carrageenan-induced paw edema at 50 mg/kg, po measured after 3hrs post carrageenan challenge. It is filed as functional.
The target of series [4] is T2, Prostaglandin G/H synthase 2 (Homo sapiens, UniProt P35354).
T2 sequence (P35354 whole entry): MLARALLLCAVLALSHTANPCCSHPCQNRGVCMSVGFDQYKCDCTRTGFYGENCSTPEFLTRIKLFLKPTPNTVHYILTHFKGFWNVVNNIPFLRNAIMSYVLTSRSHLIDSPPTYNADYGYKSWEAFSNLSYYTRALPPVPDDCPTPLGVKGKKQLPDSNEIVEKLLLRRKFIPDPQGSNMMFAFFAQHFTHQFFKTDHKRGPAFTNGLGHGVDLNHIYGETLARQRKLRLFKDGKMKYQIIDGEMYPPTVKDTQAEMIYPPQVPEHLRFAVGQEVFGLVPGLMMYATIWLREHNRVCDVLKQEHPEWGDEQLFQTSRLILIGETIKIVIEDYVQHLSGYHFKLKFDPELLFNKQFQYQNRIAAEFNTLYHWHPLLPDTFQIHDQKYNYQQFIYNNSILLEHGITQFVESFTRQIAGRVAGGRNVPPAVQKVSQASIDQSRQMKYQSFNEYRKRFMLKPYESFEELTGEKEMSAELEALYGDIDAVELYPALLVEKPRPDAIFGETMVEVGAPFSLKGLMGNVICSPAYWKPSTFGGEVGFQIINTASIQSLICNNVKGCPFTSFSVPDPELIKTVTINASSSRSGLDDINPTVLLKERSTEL
Put plainly: Inhibition of human recombinant COX-2 preincubated for 2 mins prior to arachidonic acid addition by enzyme immuno assay.

Series [5] has as its system Rattus norvegicus. The series can be described thus: Gastrointestinal toxicity in rat assessed as ulcer incidence at 100 mg/kg. To be noted: in vivo. It is filed as organism-based.
In series [6] the test system is Rattus norvegicus. Put plainly: Ulcerogenic activity in rat assessed as ulcer index at 100 mg/kg. Format: toxicity, organism-based. The settings on record: in vivo.

For the compound `CS(=O)(=O)c1ccc(C2=NN(c3ccc(S(N)(=O)=O)cc3)C(c3ccccc3)C2)cc1` (stereo not given), the IC50 in series [1] is 5.4 µM; in series [4], 1.62 µM. The Ratio IC50 in series [2] was determined as 3.33. Further, the inhibition in vivo at 50 mg/kg in the series on Rattus norvegicus [3] was determined as 54.3%.
As to `COc1ccc(C2CC(c3ccc(S(C)(=O)=O)cc3)=NN2c2ccc(S(N)(=O)=O)cc2)cc1OC` (stereo not given), the concentration for half-maximal inhibition (IC50) was determined as 8.7 µM in series [1] and 1.98 µM in series [4]. Moreover, the Ratio IC50 in series [2] came out at 4.41. Besides, in the series on Rattus norvegicus [3], the inhibition in vivo at 50 mg/kg stood at 45.5%.
Consider `CS(=O)(=O)c1ccc(C2=NN(c3ccc(C(=O)O)cc3)C(c3ccccc3)C2)cc1` (stereo not given), for which the IC50 is 4.9 µM in series [1] and 0.98 µM in series [4]. Moreover, the Ratio IC50 in series [2] is 5. Moreover, the inhibition in vivo at 50 mg/kg in the series with Rattus norvegicus [3] was determined as 56.4%.
The like results for `CS(=O)(=O)c1ccc(C2=NN(c3ccc(C(=O)O)cc3)C(c3ccc(F)cc3)C2)cc1` (stereo not given) were, in that order, 9.7 µM, 2.84 µM, 3.42 and 42.3%.
On to `COc1ccc2c(c1)c(CC(=O)O)c(C)n2C(=O)c1ccc(Cl)cc1` [INDOMETHACIN], for which the Activity with Rattus norvegicus [5] was 8.3%. Also, the UI in the series with Rattus norvegicus [6] is recorded as 12.3.
As to `COc1ccc(C2CC(c3ccc(S(C)(=O)=O)cc3)=NN2c2ccc(C(=O)O)cc2)cc1` (stereo not given), the IC50 in series [1] was 6.6 µM; in series [4], 2.17 µM. In series [2], the Ratio IC50 is 3.11. Further, in the series with Rattus norvegicus [3], the inhibition in vivo at 50 mg/kg was found to be 55.4%.
The like results for `COc1ccc(C2CC(c3ccc(S(C)(=O)=O)cc3)=NN2c2ccc(C(=O)O)cc2)cc1OC` (stereo not given) were, in that order, 9.7 µM, 3.74 µM, 2.61 and 6.11%.
`Cc1ccc(-c2cc(C(F)(F)F)nn2-c2ccc(S(N)(=O)=O)cc2)cc1` [CELECOXIB]: in the series on Rattus norvegicus [5], the Activity came to 4.2%. In the series on Rattus norvegicus [3], the inhibition in vivo at 50 mg/kg amounted to 65.3%. Further, the UI in the series with Rattus norvegicus [6] is on record as 4.85.
For the compound `COc1cc(C2CC(c3ccc(S(C)(=O)=O)cc3)=NN2c2ccc(C(=O)O)cc2)cc(OC)c1OC` (stereo not given), the half-inhibitory concentration (IC50) is 13.4 µM in series [1] and 5.94 µM in series [4]. Besides, the Ratio IC50 in series [2] turned out to be 2.51. Further, the Activity with Rattus norvegicus [5] turned out to be 5.5%. The inhibition in vivo at 50 mg/kg in the series on Rattus norvegicus [3] came to 66.2%. Further, in the series on Rattus norvegicus [6], the UI is given as 6.85.
As for `COc1cc(C2CC(c3ccc(S(C)(=O)=O)cc3)=NN2c2ccc(S(N)(=O)=O)cc2)cc(OC)c1OC` (stereo not given), the 50% inhibitory concentration (IC50) was 12.3 µM in series [1] and 4.67 µM in series [4]. In series [2], the Ratio IC50 turned out to be 2.63. In addition, the Activity in the series on Rattus norvegicus [5] turned out to be 5%. Further, the inhibition in vivo at 50 mg/kg in the series with Rattus norvegicus [3] worked out at 73.7%. Besides, the UI with Rattus norvegicus [6] came to 5.92.
For the compound `CS(=O)(=O)c1ccc(C2=NN(c3ccc(C(=O)O)cc3)C(c3ccc(Cl)cc3)C2)cc1` (stereo not given), the results for the half-inhibitory concentration (IC50) in series [1] and in series [4] were 11.4 µM and 3.98 µM, respectively. Also, the Ratio IC50 in series [2] was 2.91. In the series on Rattus norvegicus [3], the inhibition in vivo at 50 mg/kg is 50.4%.
As to `COc1cccc(C2CC(c3ccc(S(C)(=O)=O)cc3)=NN2c2ccc(S(N)(=O)=O)cc2)c1` (stereo not given), the IC50 worked out at 7.1 µM in series [1] and 1.76 µM in series [4]. Further, the Ratio IC50 in series [2] worked out at 4.11. For the same compound, in the series on Rattus norvegicus [3], the inhibition in vivo at 50 mg/kg was determined as 38.3%.
`CS(=O)(=O)c1ccc(C2=NN(c3ccc(S(N)(=O)=O)cc3)C(c3ccc(Cl)cc3)C2)cc1` (stereo not given): the 50% inhibitory concentration (IC50) in series [1] was found to be 8.3 µM; in series [4], 2.67 µM. The Ratio IC50 in series [2] came to 3.11. In addition, the inhibition in vivo at 50 mg/kg in the series on Rattus norvegicus [3] came to 42.4%.
In the case of `CS(=O)(=O)c1ccc(C2=NN(c3ccc(S(N)(=O)=O)cc3)C(c3cccs3)C2)cc1` (stereo not given), the figures for the 50% inhibitory concentration (IC50) in series [1] and in series [4] were 6.4 µM and 1.75 µM, respectively. The Ratio IC50 in series [2] stood at 3.71. Further, the inhibition in vivo at 50 mg/kg in the series with Rattus norvegicus [3] is 36.4%.
With `COc1ccc(C2CC(c3ccc(S(C)(=O)=O)cc3)=NN2c2ccc(S(N)(=O)=O)cc2)cc1` (stereo not given), the IC50 in series [1] amounted to 6.5 µM; in series [4] it was 2.11 µM. For the same compound, the Ratio IC50 in series [2] amounted to 3.1. The inhibition in vivo at 50 mg/kg in the series on Rattus norvegicus [3] was 42.4%.
For the compound `COc1cccc(C2CC(c3ccc(S(C)(=O)=O)cc3)=NN2c2ccc(C(=O)O)cc2)c1` (stereo not given), the half-maximal inhibitory concentration (IC50) in series [1] stood at 10.1 µM; in series [4], 4.71 µM. Besides, in series [2], the Ratio IC50 came to 2.21. In addition, in the series on Rattus norvegicus [3], the inhibition in vivo at 50 mg/kg is 31.3%.
`CS(=O)(=O)c1ccc(C2=NN(c3ccc(C(=O)O)cc3)C(c3cccs3)C2)cc1` (stereo not given): the IC50 in series [1] was 4.7 µM; in series [4], 1.16 µM. The Ratio IC50 in series [2] turned out to be 4.11. For the same compound, the inhibition in vivo at 50 mg/kg in the series on Rattus norvegicus [3] turned out to be 35.6%.
With `CS(=O)(=O)c1ccc(C2=NN(c3ccc(S(N)(=O)=O)cc3)C(c3ccc(F)cc3)C2)cc1` (stereo not given), the IC50 in series [1] worked out at 9.7 µM; in series [4], 3.41 µM. In series [2], the Ratio IC50 was found to be 2.91. Besides, in the series with Rattus norvegicus [5], the Activity is 6%. Besides, the inhibition in vivo at 50 mg/kg with Rattus norvegicus [3] was determined as 65.7%. For the same compound, the UI in the series with Rattus norvegicus [6] stood at 7.7.
